Assay results: ChEMBL document CHEMBL4619816, “GSK973 Is an Inhibitor of the Second Bromodomains (BD2s) of the Bromodomain and Extra-Terminal (BET) Family” (ACS Med Chem Lett, 2020)
Calls of active or inactive are those of the source. No cut-off for these calls is given here.

Columns and labels:
[1] = biological target: Bromodomain and WD repeat-containing protein 1 (Homo sapiens) (UniProt Q9NSI6); assay: Inhibition of human partial length WDR9 bromodomain 2 (A1310 to E1430 residues) expressed in bacterial expression system by BROMOscan assay
[2] = Volume of distribution at steady state in Beagle dog at 1 mg/kg, iv; type: ADME, organism-based, Canis lupus familiaris; settings: in vivo, read-out: Vdss
[3] = biological target: Bromodomain-containing protein 3 (Homo sapiens) (UniProt Q15059); assay: Inhibition of human partial length BRD3 bromodomain 2 (G306 to P416 residues) expressed in bacterial expression system by BROMOscan assay
[4] = biological target: Transcription initiation factor TFIID subunit 1 (Homo sapiens) (UniProt P21675); assay: Inhibition of human partial length TAF1 bromodomain 2 (D1521 to D1656 residues) expressed in bacterial expression system by BROMOscan assay
[5] = biological target: Bromodomain-containing protein 9 (Homo sapiens) (UniProt Q9H8M2); assay: Inhibition of human partial length BRD9 (R130 to V259 residues) expressed in bacterial expression system by BROMOscan assay
[6] = biological target: Bromodomain-containing protein 7 (Homo sapiens) (UniProt Q9NPI1); assay: Inhibition of human partial length BRD7 (L125 to R254 residues) expressed in mammalian expression system by BROMOscan assay
[7] = biological target: Bromodomain adjacent to zinc finger domain protein 2A (Homo sapiens) (UniProt Q9UIF9); assay: Inhibition of human partial length BAZ2A (M1792 to L1905 residues) expressed in bacterial expression system by BROMOscan assay
[8] = Permeability of compound by artificial membrane assay; type: ADME; settings: PAMPA; read-out: permeability
[9] = Half life in Beagle dog at 1 mg/kg, iv; type: ADME, organism-based, Canis lupus familiaris; settings: in vivo
[10] = Oral bioavailability in Beagle dog at 1 mg/kg, […]; type: ADME, organism-based, Canis lupus familiaris; settings: in vivo
[11] = biological target: Nucleosome-remodeling factor subunit BPTF (Homo sapiens) (UniProt Q12830); assay: Inhibition of human partial length FALZ (S2791 to H2911 residues) expressed in bacterial expression system by BROMOscan assay
[12] = Volume of distribution at steady state in Wistar Han rat at 1 mg/kg administered as iv infusion for 1 hr and measured up to 24 hrs by LC-MS/MS analysis; type: ADME, organism-based; settings: in vivo, read-out: Vdss
[13] = biological target: Bromodomain-containing protein 3 (Homo sapiens) (UniProt Q15059); assay: Inhibition of human partial length BRD3 bromodomain 1 (P24 to E144 residues) expressed in bacterial expression system by BROMOscan assay
[14] = biological target: Bromodomain-containing protein 2 (Homo sapiens) (UniProt P25440); assay: Inhibition of human partial length BRD2 bromodomain 2 isoform 1 (E348 to D455 residues) expressed in bacterial expression system by BROMOscan assay
[15] = Half life in Wistar Han rat at 1 mg/kg administered as iv infusion for 1 hr and measured up to 24 hrs by LC-MS/MS analysis; type: ADME, organism-based; settings: in vivo
[16] = biological target: Bromodomain testis-specific protein (Homo sapiens) (UniProt Q58F21); assay: Inhibition of human partial length BRDT bromodomain 2 (K250 to E382 residues) expressed in bacterial expression system by BROMOscan assay
[17] = biological target: Bromodomain-containing protein 1 (Homo sapiens) (UniProt O95696); assay: Inhibition of human partial length BRD1 (E556 to A688 residues) expressed in bacterial expression system by BROMOscan assay
[18] = biological target: SWI/SNF-related matrix-associated actin-dependent regulator of chromatin subfamily A member 2 (Homo sapiens) (UniProt P51531); assay: Inhibition of human partial length SMARCA2 (S1377 to Q1486 residues) expressed in bacterial expression system by BROMOscan assay
[19] = biological target: Chromatin remodeling regulator CECR2 (Homo sapiens) (UniProt Q9BXF3); assay: Inhibition of human partial length CECR2 (P423 to D543 residues) expressed in bacterial expression system by BROMOscan assay
[20] = biological target: Bromodomain and PHD finger-containing protein 3 (Homo sapiens) (UniProt Q9ULD4); assay: Inhibition of human partial length BRPF3 (E588 to G701 residues) expressed in bacterial expression system by BROMOscan assay
[21] = biological target: ATPase family AAA domain-containing protein 2B (Homo sapiens) (UniProt Q9ULI0); assay: Inhibition of human partial length ATAD2B (Q955 to R1082 residues) expressed in bacterial expression system by BROMOscan assay
[22] = biological target: Bromodomain-containing protein 8 (Homo sapiens) (UniProt Q9H0E9); assay: Inhibition of BRD8 bromodomain 1 (unknown origin) by BROMOscan assay
[23] = biological target: Protein polybromo-1 (Homo sapiens) (UniProt Q86U86); assay: Inhibition of human partial length PBRM1 bromodomain 1 (S178 to E291 residues) expressed in bacterial expression system by BROMOscan assay
[24] = biological target: SWI/SNF-related matrix-associated actin-dependent regulator of chromatin subfamily A member 4 (Homo sapiens) (UniProt P51532); assay: Inhibition of human partial length SMARCA4 (A1448 to S1575 residues) expressed in bacterial expression system by BROMOscan assay
[25] = biological target: Histone acetyltransferase KAT2A (Homo sapiens) (UniProt Q92830); assay: Inhibition of human partial length GCN5L2 (E726 to K837 residues) expressed in bacterial expression system by BROMOscan assay
[26] = biological target: Transcription initiation factor TFIID subunit 1-like (Homo sapiens) (UniProt Q8IZX4); assay: Inhibition of human partial length TAF1L bromodomain 2 (Q1523 to D1654 residues) expressed in bacterial expression system by BROMOscan assay
[27] = biological target: Bromodomain-containing protein 2 (Homo sapiens) (UniProt P25440); assay: Inhibition of human partial length BRD2 bromodomain 1 long isoform (K71 to N194 residues) expressed in bacterial expression system by BROMOscan assay
[28] = biological target: Histone acetyltransferase KAT2B (Homo sapiens) (UniProt Q92831); assay: Inhibition of human partial length PCAF (G715 to D831 residues) expressed in bacterial expression system by BROMOscan assay
[29] = biological target: Bromodomain-containing protein 3 (Homo sapiens) (UniProt Q15059); assay: Inhibition of BRD3 bromodomain 1/2 (unknown origin) by BROMOscan assay
[30] = Renal clearance in Wistar Han rat at 1 mg/kg administered as iv infusion for 1 hr and measured up to 24 hrs by LC-MS/MS analysis; type: ADME, organism-based; settings: in vivo
[31] = biological target: Transcription intermediary factor 1-alpha (Homo sapiens) (UniProt O15164); assay: Inhibition of human partial length TRIM24 (P790 to P977 residues) expressed in bacterial expression system by BROMOscan assay
[32] = biological target: E3 ubiquitin-protein ligase TRIM33 (Homo sapiens) (UniProt Q9UPN9); assay: Inhibition of human partial length TRIM33 (D882 to A1087 residues) expressed in bacterial expression system by BROMOscan assay
[33] = Clearance in Beagle dog at 1 mg/kg, iv; type: ADME, organism-based, Canis lupus familiaris; settings: in vivo
[34] = Clearance in Beagle dog hepatocytes assessed as per gram tissue at 0.5 uM by LC-MS/MS analysis; type: ADME, cell-based, Canis lupus familiaris, Hepatocyte
[35] = biological target: Protein polybromo-1 (Homo sapiens) (UniProt Q86U86); assay: Inhibition of human partial length PBRM1 bromodomain 5 (S645 to D766 residues) expressed in bacterial expression system by BROMOscan assay

Bromodomain-containing protein 3 (Homo sapiens), sequence (Q15059 2-726 limits assumed): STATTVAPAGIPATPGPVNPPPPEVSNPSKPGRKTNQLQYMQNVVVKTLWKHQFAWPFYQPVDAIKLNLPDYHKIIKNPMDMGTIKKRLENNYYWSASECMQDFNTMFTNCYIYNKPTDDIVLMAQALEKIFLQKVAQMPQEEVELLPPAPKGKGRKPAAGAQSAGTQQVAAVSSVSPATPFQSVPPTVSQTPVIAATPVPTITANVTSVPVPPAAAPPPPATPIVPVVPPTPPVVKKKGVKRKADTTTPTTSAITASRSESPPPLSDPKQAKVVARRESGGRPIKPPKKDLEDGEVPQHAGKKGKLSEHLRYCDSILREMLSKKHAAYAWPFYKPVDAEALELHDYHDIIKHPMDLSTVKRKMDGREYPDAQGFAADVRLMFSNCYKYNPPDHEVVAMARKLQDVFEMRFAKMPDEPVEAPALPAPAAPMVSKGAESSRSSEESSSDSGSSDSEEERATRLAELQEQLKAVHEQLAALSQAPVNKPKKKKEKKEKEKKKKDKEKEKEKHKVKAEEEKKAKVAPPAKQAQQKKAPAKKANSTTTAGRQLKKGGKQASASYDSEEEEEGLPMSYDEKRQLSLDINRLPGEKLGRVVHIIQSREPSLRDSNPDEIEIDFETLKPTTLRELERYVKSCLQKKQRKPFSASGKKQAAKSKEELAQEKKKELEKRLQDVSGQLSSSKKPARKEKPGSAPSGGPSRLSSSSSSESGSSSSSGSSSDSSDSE
Protein polybromo-1 (Homo sapiens), sequence (Q86U86 whole entry, the tested form may be a part): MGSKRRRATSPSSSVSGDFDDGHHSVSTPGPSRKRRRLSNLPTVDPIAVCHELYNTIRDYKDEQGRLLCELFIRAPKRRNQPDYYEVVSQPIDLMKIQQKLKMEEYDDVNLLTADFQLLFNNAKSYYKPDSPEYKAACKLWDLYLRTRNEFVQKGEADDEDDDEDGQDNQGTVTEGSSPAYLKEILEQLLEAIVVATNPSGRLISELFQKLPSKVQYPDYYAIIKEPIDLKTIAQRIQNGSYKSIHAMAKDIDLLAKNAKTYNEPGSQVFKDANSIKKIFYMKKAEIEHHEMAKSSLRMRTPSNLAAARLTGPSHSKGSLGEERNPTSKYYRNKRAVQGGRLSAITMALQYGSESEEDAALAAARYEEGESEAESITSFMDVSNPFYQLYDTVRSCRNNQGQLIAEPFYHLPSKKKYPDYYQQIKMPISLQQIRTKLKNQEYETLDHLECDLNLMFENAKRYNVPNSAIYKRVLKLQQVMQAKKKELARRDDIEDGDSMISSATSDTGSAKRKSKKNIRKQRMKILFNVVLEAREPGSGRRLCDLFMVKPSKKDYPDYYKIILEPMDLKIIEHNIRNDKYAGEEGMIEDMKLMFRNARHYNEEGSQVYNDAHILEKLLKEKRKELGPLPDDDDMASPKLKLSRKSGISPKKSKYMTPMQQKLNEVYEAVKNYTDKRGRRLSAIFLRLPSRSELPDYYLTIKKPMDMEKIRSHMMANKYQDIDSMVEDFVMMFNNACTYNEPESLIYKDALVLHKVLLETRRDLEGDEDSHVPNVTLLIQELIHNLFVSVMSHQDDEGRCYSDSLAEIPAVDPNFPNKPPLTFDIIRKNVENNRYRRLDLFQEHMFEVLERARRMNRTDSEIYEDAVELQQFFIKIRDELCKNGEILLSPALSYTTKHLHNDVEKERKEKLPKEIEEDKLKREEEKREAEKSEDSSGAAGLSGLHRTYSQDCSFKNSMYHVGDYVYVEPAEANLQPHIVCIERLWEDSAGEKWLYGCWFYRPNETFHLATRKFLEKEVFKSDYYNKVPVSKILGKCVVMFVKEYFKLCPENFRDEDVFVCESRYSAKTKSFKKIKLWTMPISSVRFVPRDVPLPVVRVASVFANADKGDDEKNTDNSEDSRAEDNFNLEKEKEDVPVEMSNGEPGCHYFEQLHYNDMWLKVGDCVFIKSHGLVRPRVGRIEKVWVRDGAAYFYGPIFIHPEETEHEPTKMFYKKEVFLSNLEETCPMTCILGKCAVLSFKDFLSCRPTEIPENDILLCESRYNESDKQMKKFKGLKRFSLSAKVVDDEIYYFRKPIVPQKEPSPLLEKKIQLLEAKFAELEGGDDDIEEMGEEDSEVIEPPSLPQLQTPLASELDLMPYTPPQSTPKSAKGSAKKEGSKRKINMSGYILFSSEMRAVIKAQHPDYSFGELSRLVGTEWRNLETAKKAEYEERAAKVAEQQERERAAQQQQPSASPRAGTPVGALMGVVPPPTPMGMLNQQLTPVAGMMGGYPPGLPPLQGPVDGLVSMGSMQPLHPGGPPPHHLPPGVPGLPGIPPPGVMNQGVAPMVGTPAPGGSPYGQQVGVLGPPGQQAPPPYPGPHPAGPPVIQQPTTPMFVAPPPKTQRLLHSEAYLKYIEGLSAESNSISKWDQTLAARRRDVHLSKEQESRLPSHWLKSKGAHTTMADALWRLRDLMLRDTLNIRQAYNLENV
Bromodomain-containing protein 2 (Homo sapiens), sequence (P25440 whole entry, looked up, the tested form may be a part, canonical isoform): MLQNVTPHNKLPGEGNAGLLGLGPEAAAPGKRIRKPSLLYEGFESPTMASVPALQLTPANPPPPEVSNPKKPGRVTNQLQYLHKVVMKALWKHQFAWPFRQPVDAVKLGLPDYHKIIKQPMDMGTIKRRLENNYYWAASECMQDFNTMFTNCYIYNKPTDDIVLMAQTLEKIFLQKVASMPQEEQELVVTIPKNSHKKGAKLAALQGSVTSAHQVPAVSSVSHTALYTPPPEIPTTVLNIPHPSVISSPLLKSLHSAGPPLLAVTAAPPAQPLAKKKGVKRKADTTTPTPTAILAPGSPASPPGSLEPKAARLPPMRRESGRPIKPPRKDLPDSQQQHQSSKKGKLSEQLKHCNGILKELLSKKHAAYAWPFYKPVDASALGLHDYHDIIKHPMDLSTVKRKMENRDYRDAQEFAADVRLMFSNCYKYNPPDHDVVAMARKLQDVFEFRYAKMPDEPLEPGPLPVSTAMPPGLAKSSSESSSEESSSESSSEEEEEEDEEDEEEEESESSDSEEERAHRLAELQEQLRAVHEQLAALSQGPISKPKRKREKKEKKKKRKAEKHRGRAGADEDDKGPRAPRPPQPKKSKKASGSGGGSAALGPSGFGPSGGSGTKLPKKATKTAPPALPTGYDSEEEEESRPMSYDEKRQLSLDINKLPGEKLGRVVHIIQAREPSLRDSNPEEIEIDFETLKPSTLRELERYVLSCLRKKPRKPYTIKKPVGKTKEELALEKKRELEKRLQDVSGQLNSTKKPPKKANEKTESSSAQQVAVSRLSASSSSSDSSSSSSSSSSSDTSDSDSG
Bromodomain adjacent to zinc finger domain protein 2A (Homo sapiens), sequence (Q9UIF9 whole entry, the tested form may be a part): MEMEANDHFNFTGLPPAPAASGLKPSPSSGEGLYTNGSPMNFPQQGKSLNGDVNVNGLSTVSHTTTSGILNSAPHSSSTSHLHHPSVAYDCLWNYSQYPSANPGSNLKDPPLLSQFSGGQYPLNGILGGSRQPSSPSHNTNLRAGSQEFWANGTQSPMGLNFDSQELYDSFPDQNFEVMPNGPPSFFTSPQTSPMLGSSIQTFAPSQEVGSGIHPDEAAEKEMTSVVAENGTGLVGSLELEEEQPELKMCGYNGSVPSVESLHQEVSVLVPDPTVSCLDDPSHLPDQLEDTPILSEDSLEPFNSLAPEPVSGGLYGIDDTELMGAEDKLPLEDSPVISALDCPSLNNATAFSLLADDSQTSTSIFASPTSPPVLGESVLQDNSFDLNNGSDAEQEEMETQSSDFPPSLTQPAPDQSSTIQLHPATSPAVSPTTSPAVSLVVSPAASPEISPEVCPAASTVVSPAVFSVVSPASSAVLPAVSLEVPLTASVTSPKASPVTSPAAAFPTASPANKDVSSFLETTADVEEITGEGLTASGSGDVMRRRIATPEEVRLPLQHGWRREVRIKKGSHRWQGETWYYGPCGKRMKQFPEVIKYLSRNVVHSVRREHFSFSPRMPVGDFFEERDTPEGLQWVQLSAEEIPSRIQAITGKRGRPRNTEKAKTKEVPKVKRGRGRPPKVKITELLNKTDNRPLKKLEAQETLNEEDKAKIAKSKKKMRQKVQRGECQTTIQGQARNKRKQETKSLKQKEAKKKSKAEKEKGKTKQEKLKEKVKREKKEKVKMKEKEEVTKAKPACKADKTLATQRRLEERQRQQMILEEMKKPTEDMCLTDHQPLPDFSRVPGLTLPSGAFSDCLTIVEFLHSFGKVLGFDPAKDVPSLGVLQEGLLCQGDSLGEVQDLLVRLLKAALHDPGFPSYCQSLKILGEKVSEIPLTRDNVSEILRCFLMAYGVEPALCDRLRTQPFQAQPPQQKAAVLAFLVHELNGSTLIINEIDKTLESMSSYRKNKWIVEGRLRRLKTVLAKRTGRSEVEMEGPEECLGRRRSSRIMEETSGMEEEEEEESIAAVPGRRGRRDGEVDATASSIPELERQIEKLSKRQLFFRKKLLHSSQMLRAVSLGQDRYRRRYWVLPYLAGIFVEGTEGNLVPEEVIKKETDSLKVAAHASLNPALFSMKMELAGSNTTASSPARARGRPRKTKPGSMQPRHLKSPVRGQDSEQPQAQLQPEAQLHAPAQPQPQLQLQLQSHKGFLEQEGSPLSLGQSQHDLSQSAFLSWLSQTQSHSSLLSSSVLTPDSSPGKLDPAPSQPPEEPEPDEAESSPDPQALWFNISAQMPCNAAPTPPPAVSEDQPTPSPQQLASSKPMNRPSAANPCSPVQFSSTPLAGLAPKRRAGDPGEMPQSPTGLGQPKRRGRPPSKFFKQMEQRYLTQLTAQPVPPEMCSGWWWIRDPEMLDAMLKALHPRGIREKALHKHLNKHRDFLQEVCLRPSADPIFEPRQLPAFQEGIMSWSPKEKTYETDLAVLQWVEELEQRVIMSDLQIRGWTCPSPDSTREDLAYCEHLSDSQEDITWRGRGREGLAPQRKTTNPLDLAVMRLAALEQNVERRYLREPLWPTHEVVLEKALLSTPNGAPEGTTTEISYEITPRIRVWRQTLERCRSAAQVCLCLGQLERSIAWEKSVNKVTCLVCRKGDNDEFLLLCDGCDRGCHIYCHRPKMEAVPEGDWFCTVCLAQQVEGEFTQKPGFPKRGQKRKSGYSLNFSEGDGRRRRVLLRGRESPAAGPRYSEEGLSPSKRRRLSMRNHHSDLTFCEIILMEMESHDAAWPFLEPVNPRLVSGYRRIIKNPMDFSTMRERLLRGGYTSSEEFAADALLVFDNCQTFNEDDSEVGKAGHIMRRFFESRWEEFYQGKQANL

inhibition [1]: inactive
Vd [2]: 1.3 L/kg
inhibition [3]: inactive
inhibition [4]: inactive
inhibition [5]: inactive
inhibition [6]: inactive
inhibition [7]: inactive
Papp [8]: 16.5 ×10⁻⁶ cm/s
half-life [9]: 4.8 h
bioavailability [10]: 87%
inhibition [11]: inactive
Vd [12]: 2.1 L/kg
inhibition [13]: inactive
inhibition [14]: inactive
half-life [15]: 0.6 h
inhibition [16]: inactive
inhibition [17]: inactive
inhibition [18]: inactive
inhibition [19]: inactive
inhibition [20]: inactive
inhibition [21]: inactive
inhibition [22]: inactive
inhibition [23]: inactive
inhibition [24]: inactive
inhibition [25]: inactive
inhibition [26]: inactive
inhibition [27]: inactive
inhibition [28]: inactive
inhibition [29]: inactive
CL renal [30]: 4 mL/min/kg
inhibition [31]: inactive
inhibition [32]: inactive
clearance [33]: 3 mL/min/kg
CLH [34]: < 0.65 mL/min/g
inhibition [35]: inactive
SMILES: CNC(=O)c1cc(C(=O)N[C@@H]2[C@@H]3COC[C@@H]32)cc2c1O[C@H](CF)[C@H]2c1ccccc1
